Experimental data published in ChEMBL document CHEMBL1641386, “Lagunamides A and B: cytotoxic and antimalarial cyclodepsipeptides from the marine cyanobacterium Lyngbya majuscula” (J Nat Prod, 2010).

Tests used:
[1] = tested on: P388; experiment: Cytotoxicity against mouse P388 cells after 72 hrs by MTT assay; type: functional, cell-based; conditions: P388, 72 h
[2] = tested on: Plasmodium falciparum; experiment: Antimalarial activity against drug-sensitive Plasmodium falciparum NF54 infected in human erythrocytes after 48 hrs by Liquid scintillation counter; type: functional, organism-based; conditions: NF54, 48 h
[3] = tested on: Pseudomonas aeruginosa; experiment: Anti-Swarming activity against Pseudomonas aeruginosa PA01 at 100 ppm after 72 hrs; type: functional

CC[C@@H](C)[C@@H]1NC(=O)CN(C)C(=O)[C@@H](Cc2ccccc2)N(C)C(=O)[C@H](C)NC(=O)[C@@H]([C@@H](C)CC)OC(=O)/C(C)=C/C[C@H](O)[C@H](C)[C@H]([C@@H](C)CC)OC(=O)[C@H](C)N(C)C1=O [LAGUNAMIDE A]
IC50 [1]: 6.4 nM | IC50 [2]: 190 nM | Activity [3]: 62%

C/C=C(\C)[C@@H]1OC(=O)[C@H](C)N(C)C(=O)[C@H]([C@H](C)CC)NC(=O)CN(C)C(=O)[C@@H](Cc2ccccc2)N(C)C(=O)[C@H](C)NC(=O)[C@@H]([C@@H](C)CC)OC(=O)/C(C)=C/C[C@H](O)[C@@H]1C [LAGUNAMIDE B]
IC50 [1]: 20.5 nM | IC50 [2]: 910 nM | Activity [3]: 56%
